# Source: patent US20140357706A1, “Stearate Compounds” (THE UAB RESEARCH FOUNDATION, priority 2011, published 2014)
# How the values were obtained:
# [1] = test system: MDA-MB-435 human breast cancer cells; assay: MDA-MB-435 lung metastasis model, experiment 2 (diet started with chemotherapy after surgery); assay type: in vivo, mice
# Protocol: 3-4 week old female athymic mice were purchased from Harlan Sprague Dawley, Inc. (Indianapolis, Ind.) and were maintained in microisolater cages in pathogen-free facilities. […] The diets were prepared by Harlan-Teklad (Madison, Wis.). The animals were fed ad libitum and the amount of food consumed was recorded. Mice were anesthetized with 3% isoflurane in 2.5% O2 and weighed weekly. All in vivo procedures were approved by the Institutional Animal Care and Use Committee (IACUC), University of Alabama at Birmingham (UAB).
# MDA-MB-435 human breast cancer cells (obtained from Dr. Dan Welch; UAB) were grown and maintained in DMEM:F12 supplemented with 5% FBS, 2 mM glutamine, 1 mM sodium pyruvate, 0.2× non-essential amino acids and 1% penicillin/streptomycin (5% CO2). Cells were grown to 80-90% confluence prior to preparation for injection. To detach cells from the plates, cells were washed with PBS and then treated with 3 mM versene. […]
# Lungs were placed under the dissecting microscope (Fisher Scientific, Hanover Park, Ill.) for measurement of metastatic tumor size. Tumor size is expressed as an average of the longest and shortest diameter. The tumors were split into three groups according to their sizes (<0.1 cm, small tumor; 0.1-0.2 cm, medium tumor; >0.2 cm, large tumor), and the number of tumors per mouse was counted separately.
# lung metastatic tumors = assay: Immunohistochemistry of lung metastatic tumors (CD31, Ki67, caspase-3), experiment 2; assay type: in vivo, mice
# Protocol: Paraffin sections were prepared as described previously (21). 5 μm thick sections were cut from the formalin fixed, paraffin embedded tissue blocks and floated onto charged glass slides (Super-Frost Plus, Fisher Scientific, Pittsburgh, Pa.) and dried overnight at 60° C. A hemotoxylin and eosin stained section was obtained from each tissue block. All sections for immunohistochemistry were deparaffinized and hydrated using graded concentrations of ethanol to deionized water.
# CD31 immunostaining was done as described previously^(21). Briefly, the tissue sections were subjected to pretreatment with 0.5 M tris buffer (pH 10). All sections were washed gently in deionized water, then transferred in to 0.05 M Tris-based solution in 0.15 M NaCl with 0.1% v/v Triton-X-100, pH 7.6 (TBST). Endogenous peroxidase was blocked with 3% hydrogen peroxide for 10 min. To reduce further nonspecific background staining, slides were incubated with avidin (Jackson ImmunoResearch, West Grove, Pa.) and biotin blocking solutions (Sigma, to St. Louis, Mo.) for 15 min each, and 3% normal goat serum (Sigma, St. Louis, Mo.) for 20 min. All slides were then incubated at 4° C. overnight with rabbit polyclonal antibody against CD31 (1:200 dilution) (Abeam, Cambridge, Mass.). […]
# Bioquant® Image Analysis software (Rtm Biometrics, Nashville, Tenn.) was used to evaluate the immunostaining. […] The numbers of positive and negative cells in these hot spots were then counted and averaged at 5 magnification X40. The percentage of cells stained with Ki67 or caspase-3 was subsequently calculated for comparison. For CD31 immunostaining, the MVD was measured based on Weidner's method (37). […] The number of microvessels in these hot spots was counted at magnification X40, and the density was then calculated for comparison. Each positive endothelial cell cluster of immunoreactivity was counted as an individual vessel in addition to the morphologically identifiable vessels with a lumen.
structure (smiles),measurement,setting,value
CC(=O)O[C@H]1C(=O)[C@@]2(C)[C@H]([C@H](OC(=O)c3ccccc3)[C@]3(O)C[C@H](OC(=O)[C@H](O)[C@@H](NC(=O)c4ccccc4)c4ccccc4)C(C)=C1C3(C)C)[C@]1(OC(C)=O)CO[C@@H]1C[C@@H]2O [paclitaxel],Incidence of lung metastases,"[1]; PTX vs same diet without PTX, p<0.01, about 20 mg/kg i.p.",significantly lower
same,Number of lung metastases,"[1]; two-way ANOVA, PTX VS. no PTX, diet VS. control diet",significantly reduced
same,Caspase-3 positive cells,lung metastatic tumors; compared to control diet group,significantly increased
same,Percentage of Ki67 positive cells (proliferation),lung metastatic tumors; two-way ANOVA,significantly inhibited
same,"Microvessel density (MVD), CD31","lung metastatic tumors; two-way ANOVA, PTX VS. no PTX, diet VS. control diet group",decreased the MVD significantly
